# Test results published in patent US7176224B2, “Oxazolyl-aryloxyacetic acid derivatives and their use as PPAR agonists” (Eli Lilly and Company, priority 2000, dated 2007).
# How the values were obtained:
# huPPARγ = assay: Cotransfection assay in CV-1 cells, luciferase reporter; type: cell-based, human; details: GAL4 chimeric system, relative to agonist reference molecule
# Procedure: […] binding (ABCD binding) was carried out using SPA technology with PPAR receptors. […] Cotransfection assays were carried out in CV-1 cells. The reporter plasmid contained an acylCoA oxidase (AOX) PPRE and TK promoter upstream of the luciferase reporter cDNA. Appropriate PPARs and RXRα were constitutively expressed using plasmids containing the CMV promoter. […] In order to eliminate such interference, a GAL4 chimeric system was used in which the DNA binding domain of the transfected PPAR was replaced by that of GAL4, and the GAL4 response element was utilized in place of the AOX PPRE. […] Efficacies were determined by computer fit to a concentration-response curve, or in some cases at a single high concentration of agonist (10 μM). For binding or cotransfection studies with receptors other than PPARs, similar assays were carried out using appropriate ligands, receptors, reporter constructs, etc., for that particular receptor.
# These studies were carried out to evaluate the ability of compounds of the invention to bind to and/or activate various nuclear transcription factors, particularly huPPARα (“hu” indicates “human”) and huPPARγ. These studies provide in vitro data concerning efficacy and selectivity of compounds of the invention. Furthermore, binding and cotransfection data for compounds of the invention were compared with corresponding data for marketed compounds that act on either huPPARα or huPPARγ.
# db/db mice = assay: Evaluation of glucose levels in db/db mice; type: in vivo; details: 30 mg/kg oral gavage daily for 7 days; 100% = glucose not differing from lean values
# Procedure: Five week old male diabetic (db/db) mice [C57BlKs/j-m +/+ Lepr(db), Jackson Laboratory, Bar Harbor, Me.] or lean littermates (DB/?) were housed 6 per cage (10″20″8″ with aspen chip bedding) with food (Purina 5015) and water available at all times. After an acclimation period of 2 weeks, animals were individually identified by ear notches, weighed, and bled via the tail vein for determination of initial glucose levels. Blood was collected (100 μl) from unfasted animals by wrapping each mouse in a towel, cutting the tip of the tail with a scalpel, and milking blood from the tail into a heparinized capillary tube (Fisher) balanced on the edge of the bench. Sample was discharged into a heparinized microtainer with gel separator (VWR) and retained on ice. Plasma was obtained after centrifugation at 4° C. and glucose measured immediately. Remaining plasma was frozen until the completion of the experiment, when glucose and triglycerides were assayed in all samples. […]
# Glucose was measured colorimetrically using commercially purchased reagents (Sigma #315-500). […] The absorbance of the dye produced is linearly related to the analyte in the sample. […] Standards (Sigma #339-11, Sigma #16-11, and Sigma #CC0534 for glucose, triglycerides and total cholesterol, respectively), quality control plasma (Sigma # A2034), and samples (2 or 5 μl/well) were measured in duplicate using 200 μl of reagent. […]
smiles,measurement,setting,value
"Cc1oc(-c2cccc(-c3ccc(F)cc3)c2)nc1CCOc1ccc(CC(C)(Oc2ccccc2)C(=O)O)cc1 (centres unmarked) [Example 4, 3-(4-{2-[2-(4′-Fluorobiphenyl-3-yl)-5-methyloxazol-4-yl]ethoxy}phenyl)-2-methyl-2-phenoxypropionic acid]",huPPARγ CTF Efficacy,huPPARγ,93%
same,Glucose Normalisation,db/db mice,91%
